The values that follow come from US20240366581A1 (Hoffmann-La Roche Inc., priority 2022, published 2024).

Structures can show the parent of a compound that is named as a salt. Where only a bound is given, the exact number is not on record here.

The term IC50 denotes the concentration that gives 50% inhibition.

Holding throughout (type): biochemical
One test concerns the target SIK1 (Homo sapiens (Human), UniProt P57059). Kind of test: SIK1 enzymatic activity assay, RapidFire mass spectrometry (CHK-peptide phosphorylation). The conditions noted are these: 5 nM SIK1, CHK-peptide, ATP, 30 min pre-incubation, 45 min reaction, RapidFire MS; read-out: SIK1 RF IC50. The method, then: (§1) In the presence of SIK2 (resp. SIK1 or SIK3) and ATP the CHK-peptide ([…] with C-terminal arginine amide modification) were phosphorylated at one of the four feasible serine's. Only one phosphorylation is observed under the assay conditions. 60 nl of each compound dilution series (12 point; dilution factor 3, generally 30 μM to 170 pM) in DMSO were transferred by acoustic dispensing to the assay plate and 30 min pre-incubated (ambient temperature) after the addition of 5 μl SIK1 (5 nM) resp. 5 μl SIK2 (0.5 nM) or 7 μl SIK3 (1.5 nM) in assay-buffer (12.5 mM HEPES (pH 7.0), 10 mM magnesium acetate, 0.005% BSA). 10 μM CHK-peptide solution and 5 μl 100 μM ATP for SIK1 & SIK2 resp. 3 μl for SIK3 in assay-buffer were added and incubated ambient for 45 min. 40 μl 0.125% formic acid in water were added to quench the reaction. RapidFire (RF) Mass Spectrometry was utilized for data generation as described below. The multiple charged species (3-5 charges) for the phosphorylated and non-phosphorylated form measured by MRM (Multiple Reaction Monitoring; API5000 or 6500+) or EIC (Extracted Ion Current; QToF) were summed up and the ratio calculated (sum phosphorylated species/sum all species) for data evaluation. Normalization was performed by Genedata software based on the non-inhibition control DMSO and the commercially available SIK inhibitor @ 1 μM YKL-05-099 (CAS number 1936529-65-5). The results of the assay are expressed in half-maximal inhibitory concentrations (IC50s) and are summarized below in Table 1.
(§2) Samples were aspirated by vacuum for max. 600 ms and loaded to C4-cartridge (Agilent; #G9203A) for 3000 ms@1.5 ml/min with 0.1% formic acid in water. Afterwards samples were transferred to the API5000 (API6500+) or QToF mass spectrometer for 4000 ms@1.25 ml/min with 90% acetonitrile; 10% water; 0.007% TFA; 0.093 formic acid. The cartridge was reconditioned for additional 500 ms with 0.1% formic acid in water
(§3) All MS analyses using the following MS-setup in MRM mode: Electrospray positive; Ion Spray Voltage: 4000V; Temperature: 550° C.; Collision Gas: 5; Curtain Gas: 15; Gas1: 40; Gas 2: 42; EP: 10
(§4) All MS analyses using the following MS-setup in Mode MS: Dual AJS Electrospray positive; VCap: 3000V; Drying & Sheath gas: 340° C.@81/min; Nebulizer: 60 psig; Nozzle Voltage: 2000V; Fragmentor: 130V; Skimmer: 35V; Oct1 RF Vpp: 700V; Ref masses on@5spectra/s

Another test deals with SIK2 (Homo sapiens (Human), UniProt Q9H0K1). Kind of test: SIK2 enzymatic activity assay, RapidFire mass spectrometry (CHK-peptide phosphorylation). Conditions: 0.5 nM SIK2, CHK-peptide, ATP, 30 min pre-incubation, 45 min reaction, RapidFire MS; read-out: SIK2 RF IC50. The method, then:
as §1, §2, §3, §4

Another test deals with SIK3 (Homo sapiens (Human), UniProt Q9Y2K2). Kind of test: SIK3 enzymatic activity assay, RapidFire mass spectrometry (CHK-peptide phosphorylation). Conditions: 1.5 nM SIK3, CHK-peptide, ATP, 30 min pre-incubation, 45 min reaction, RapidFire MS; read-out: SIK3 RF IC50. The method, then: as §1, §2, §3, §4
SIK3, sequence (Q9Y2K2 whole entry): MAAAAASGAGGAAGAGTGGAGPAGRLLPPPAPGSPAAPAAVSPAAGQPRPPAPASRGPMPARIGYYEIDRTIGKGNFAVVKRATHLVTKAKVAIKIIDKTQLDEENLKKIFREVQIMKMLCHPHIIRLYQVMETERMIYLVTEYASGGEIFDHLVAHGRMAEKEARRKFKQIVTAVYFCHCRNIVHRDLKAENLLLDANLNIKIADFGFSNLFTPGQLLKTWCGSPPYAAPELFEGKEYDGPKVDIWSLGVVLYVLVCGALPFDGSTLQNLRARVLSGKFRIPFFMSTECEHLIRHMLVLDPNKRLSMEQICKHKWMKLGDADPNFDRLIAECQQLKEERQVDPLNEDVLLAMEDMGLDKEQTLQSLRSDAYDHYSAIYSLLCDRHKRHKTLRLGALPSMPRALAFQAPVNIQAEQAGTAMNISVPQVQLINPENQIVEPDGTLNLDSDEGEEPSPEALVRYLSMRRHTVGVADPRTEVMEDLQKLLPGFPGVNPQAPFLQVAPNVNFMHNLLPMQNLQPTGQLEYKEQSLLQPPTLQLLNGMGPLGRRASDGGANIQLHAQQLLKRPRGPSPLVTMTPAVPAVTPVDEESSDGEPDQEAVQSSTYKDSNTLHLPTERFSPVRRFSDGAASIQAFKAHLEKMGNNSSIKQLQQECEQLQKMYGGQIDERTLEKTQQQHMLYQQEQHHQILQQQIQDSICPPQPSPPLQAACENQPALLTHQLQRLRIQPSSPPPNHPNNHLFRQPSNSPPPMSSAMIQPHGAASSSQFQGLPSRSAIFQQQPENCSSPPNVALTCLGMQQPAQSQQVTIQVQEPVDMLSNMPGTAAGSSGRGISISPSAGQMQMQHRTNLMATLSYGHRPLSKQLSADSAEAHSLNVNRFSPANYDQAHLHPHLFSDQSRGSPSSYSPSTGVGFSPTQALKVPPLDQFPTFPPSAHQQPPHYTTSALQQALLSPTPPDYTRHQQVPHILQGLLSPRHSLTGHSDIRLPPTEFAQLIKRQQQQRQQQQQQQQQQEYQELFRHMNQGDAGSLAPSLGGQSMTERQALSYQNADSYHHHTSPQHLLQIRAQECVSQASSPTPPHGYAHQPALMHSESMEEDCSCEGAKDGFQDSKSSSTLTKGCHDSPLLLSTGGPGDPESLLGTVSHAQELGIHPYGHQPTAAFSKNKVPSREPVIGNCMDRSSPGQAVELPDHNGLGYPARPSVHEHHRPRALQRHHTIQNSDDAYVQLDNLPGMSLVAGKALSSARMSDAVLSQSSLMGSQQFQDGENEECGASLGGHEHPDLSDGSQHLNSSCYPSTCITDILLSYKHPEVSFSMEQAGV

SIK2, sequence (Q9H0K1 whole entry): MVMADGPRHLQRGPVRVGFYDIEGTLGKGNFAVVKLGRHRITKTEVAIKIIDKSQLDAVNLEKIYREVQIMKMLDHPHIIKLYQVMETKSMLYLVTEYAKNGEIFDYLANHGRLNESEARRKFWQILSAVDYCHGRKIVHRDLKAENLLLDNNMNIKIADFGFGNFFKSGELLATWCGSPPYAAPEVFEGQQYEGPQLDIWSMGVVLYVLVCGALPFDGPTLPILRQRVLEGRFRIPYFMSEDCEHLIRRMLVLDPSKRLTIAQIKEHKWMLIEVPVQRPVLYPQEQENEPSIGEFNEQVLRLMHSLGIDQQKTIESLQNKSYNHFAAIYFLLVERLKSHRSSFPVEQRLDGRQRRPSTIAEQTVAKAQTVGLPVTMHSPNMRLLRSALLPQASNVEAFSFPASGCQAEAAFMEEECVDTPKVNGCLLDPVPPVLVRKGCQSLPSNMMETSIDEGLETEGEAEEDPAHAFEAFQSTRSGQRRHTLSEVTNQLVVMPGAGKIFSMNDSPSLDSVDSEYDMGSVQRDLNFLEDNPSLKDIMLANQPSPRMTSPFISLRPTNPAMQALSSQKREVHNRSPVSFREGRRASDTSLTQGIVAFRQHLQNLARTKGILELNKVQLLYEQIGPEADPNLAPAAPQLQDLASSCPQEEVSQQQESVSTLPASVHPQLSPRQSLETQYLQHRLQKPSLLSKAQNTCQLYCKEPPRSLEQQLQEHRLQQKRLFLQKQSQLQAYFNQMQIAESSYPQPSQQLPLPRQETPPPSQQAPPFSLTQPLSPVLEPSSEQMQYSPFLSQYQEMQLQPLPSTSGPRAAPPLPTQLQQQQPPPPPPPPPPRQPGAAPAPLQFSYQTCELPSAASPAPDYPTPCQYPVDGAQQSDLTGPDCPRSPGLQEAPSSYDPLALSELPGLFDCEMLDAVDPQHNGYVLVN
SIK1, sequence (P57059 whole entry): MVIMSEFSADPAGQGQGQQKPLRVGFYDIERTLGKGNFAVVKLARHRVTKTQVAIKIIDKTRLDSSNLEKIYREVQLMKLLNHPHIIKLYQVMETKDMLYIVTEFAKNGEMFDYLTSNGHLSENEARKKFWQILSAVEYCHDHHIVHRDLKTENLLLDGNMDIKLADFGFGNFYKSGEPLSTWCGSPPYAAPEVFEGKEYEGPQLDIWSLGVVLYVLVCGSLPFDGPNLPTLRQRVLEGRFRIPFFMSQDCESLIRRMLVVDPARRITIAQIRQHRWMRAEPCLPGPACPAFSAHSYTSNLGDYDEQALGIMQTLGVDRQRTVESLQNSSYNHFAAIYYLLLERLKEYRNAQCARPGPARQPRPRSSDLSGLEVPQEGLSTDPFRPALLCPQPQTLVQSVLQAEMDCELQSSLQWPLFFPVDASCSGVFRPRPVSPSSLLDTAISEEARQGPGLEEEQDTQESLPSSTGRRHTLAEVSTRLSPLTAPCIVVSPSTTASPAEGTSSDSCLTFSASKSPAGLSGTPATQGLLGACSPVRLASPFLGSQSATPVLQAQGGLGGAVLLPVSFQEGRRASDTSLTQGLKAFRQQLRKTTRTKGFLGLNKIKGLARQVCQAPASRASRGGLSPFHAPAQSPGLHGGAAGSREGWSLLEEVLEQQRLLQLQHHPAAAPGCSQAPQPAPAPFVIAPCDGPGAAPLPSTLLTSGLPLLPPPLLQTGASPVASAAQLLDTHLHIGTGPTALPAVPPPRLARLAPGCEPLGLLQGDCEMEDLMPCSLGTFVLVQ

For the molecule `COc1cc2ncn(-c3ccc(C(N)=O)c(NCc4ccc(Cl)cc4)n3)c2cc1OC` [Example 8, 2-[(4-chlorophenyl)methylamino]-6-(5,6-dimethoxybenzimidazol-1-yl)pyridine-3-carboxamide], the IC50 at SIK1 is 27.4 nM; on SIK2 it was 16.2 nM; on SIK3 it was 260 nM.
On to `COc1cc2ncn(-c3ccc(C(=O)NC4CC4)c(-c4cccc(C#N)c4)n3)c2cc1OC` [Example 19, 2-(3-Cyanophenyl)-N-cyclopropyl-6-(5,6-dimethoxybenzimidazol-1-yl)pyridine-3-carboxamide], for which the half-inhibitory concentration (IC50) was 1770 nM on SIK1, 5740 nM at SIK2 and greater than 10000 nM at SIK3.
The like results for `CCNC(=O)c1ccc(-n2cnc3cc(OC)c(OC)cc32)nc1-c1cccc(C#N)c1` [Example 17, 2-(3-cyanophenyl)-6-(5,6-dimethoxybenzimidazol-1-yl)-N-ethyl-pyridine-3-carboxamide] were, in that order, 14900 nM, 5070 nM and 21600 nM.
With `COc1cc2ncn(-c3ccc(C(=O)O)c(N4CCCCC4)n3)c2cc1OC` [Example 16, 6-(5,6-Dimethoxy-1H-benzo[d]imidazol-1-yl)-2-(piperidin-1-yl)nicotinic acid], the values for the IC50 at SIK1, at SIK2 and at SIK3 were 260 nM, 241 nM and 1670 nM, respectively.
The like results for `Cc1ccc(Nc2ccc3c(c2)ncn3-c2ccc(C=O)c(N3C[C@H](C#N)C[C@@H]3C)n2)nn1` [Example 33, (3R,5S)-1-[3-formyl-6-[5-[(6-methylpyridazin-3-yl)amino]benzimidazol-1-yl]-2-pyridyl]-5-methyl-pyrrolidine-3-carbonitrile] were, in that order, 76 nM, 95.1 nM and 562 nM.
The like results for `COc1cc2ncn(-c3ccc(C(N)=O)c(NC(CCN)c4ccccc4)n3)c2cc1OC` (stereo not drawn) [Example 5, 2-[(3-amino-1-phenyl-propyl)amino]-6-(5,6-dimethoxybenzimidazol-1-yl)pyridine-3-carboxamide hydrochloride] were, in that order, 7.4 nM, 9.5 nM and 331 nM.
For the molecule `COC(=O)c1ccc(-n2cnc3cc(OC)c(OC)cc32)nc1N1CCCCC1=O` [Example 14, Methyl 6-(5,6-dimethoxy-1H-benzo[d]imidazol-1-yl)-2-(2-oxopiperidin-1-yl)nicotinate], the half-inhibitory concentration (IC50) on SIK1 worked out at 7480 nM; at SIK2, 5150 nM; at SIK3, 18000 nM.
In the case of `COC(=O)c1ccc(-n2cnc3cc(OC)c(OC)cc32)nc1-c1cccc(Cl)c1` [Example 13, Methyl 2-(3-chlorophenyl)-6-(5,6-dimethoxy-1H-benzo[d]imidazol-1-yl)nicotinate], the concentration for half-maximal inhibition (IC50) at SIK1 was 22500 nM; on SIK2, 995 nM; on SIK3, greater than 30000 nM.
With `Cc1ccc(Nc2ccc3c(c2)ncn3-c2ccc(C(=O)C(F)(F)F)c(-n3nc(C#N)cc3C)n2)nn1` [Example 34, 5-methyl-1-[6-[5-[(6-methylpyridazin-3-yl)amino]benzimidazol-1-yl]-3-(2,2,2-trifluoroacetyl)-2-pyridyl]pyrazole-3-carbonitrile], the half-maximal inhibitory concentration (IC50) on SIK1 stood at 2330 nM; on SIK2, 41.4 nM; at SIK3, 31.7 nM.
For `CC(=O)c1ccc(-n2cnc3cc(Nc4ccc(C5CCCN5)nn4)ccc32)nc1-n1nc(C#N)cc1C` (stereo not drawn) [Example 39, 1-[3-acetyl-6-[5-[(6-pyrrolidin-2-ylpyridazin-3-yl)amino]benzimidazol-1-yl]-2-pyridyl]-5-methyl-pyrazole-3-carbonitrile] the same measures were 6580 nM, 43.7 nM and 728 nM.
For `COc1cc2ncn(-c3ccc(C(N)=O)c(Nc4ccccc4)n3)c2cc1OC` [Example 2, 6-(5,6-Dimethoxy-benzoimidazol-1-yl)-2-phenylamino-nicotinamide] the same measures were 14 nM, 3.8 nM and 97.2 nM.
In the case of `COc1cc2ncn(-c3ccc(C(N)=O)c(NCCc4cccc(Cl)c4)n3)c2cc1OC` [Example 9, 2-[2-(3-chlorophenyl)ethylamino]-6-(5,6-dimethoxybenzimidazol-1-yl)pyridine-3-carboxamide], the IC50 on SIK1 came out at 6.2 nM; on SIK2 it was 6.5 nM; at SIK3 it was 146 nM.
The like results for `COc1nn(C)cc1-c1ccc2c(c1)ncn2-c1ccc(C(C)=O)c(-n2nc(C#N)cc2C)n1` [Example 38, 1-[3-acetyl-6-[5-(3-methoxy-1-methyl-pyrazol-4-yl)benzimidazol-1-yl]-2-pyridyl]-5-methyl-pyrazole-3-carbonitrile] were, in that order, 3490 nM, 754 nM and 1790 nM.
On to `COc1cc2ncn(-c3ccc(C(N)=O)c(-c4cccc(C#N)c4)n3)c2cc1OC` [Example 21, 2-(3-Cyanophenyl)-6-(5,6-dimethoxybenzimidazol-1-yl)pyridine-3-carboxamide], for which the figures for the concentration for half-maximal inhibition (IC50) on SIK1, on SIK2 and at SIK3 were 659 nM, 878 nM and 3500 nM, respectively.
On to `COc1cc2ncn(-c3ccc(C(N)=O)c(Oc4ccccc4Cl)n3)c2cc1OC` [Example 1, 2-(2-chlorophenoxy)-6-(5,6-dimethoxybenzimidazol-1-yl)pyridine-3-carboxamide], for which the 50% inhibitory concentration (IC50) on SIK1 was 15.1 nM; at SIK2, 14.2 nM; on SIK3 it was 57.2 nM.
For `Cc1cc(C#N)nn1-c1nc(-n2cnc3cc(OCCN4CCOCC4)ccc32)ccc1C(N)=O` [Example 22, 2-(3-Cyano-5-methyl-pyrazol-1-yl)-6-[5-(2-morpholinoethoxy)benzimidazol-1-yl]pyridine-3-carboxamide] the same measures were 19800 nM, 7410 nM and 12200 nM.
With `CC(=O)c1ccc(-n2cnc3ccc(Nc4ccc(C)nn4)cc32)nc1-n1nc(C#N)cc1C` [Example 28, 1-[3-Acetyl-6-[6-[(6-methylpyridazin-3-yl)amino]benzimidazol-1-yl]-2-pyridyl]-5-methyl-pyrazole-3-carbonitrile], the 50% inhibitory concentration (IC50) was determined as 308 nM at SIK1, 111 nM on SIK2 and 184 nM on SIK3.
The like results for `COc1cc2ncn(-c3ccc(C(=O)NCC(F)(F)F)c(-c4cccc(C#N)c4)n3)c2cc1OC` [Example 20, 2-(3-Cyanophenyl)-6-(5,6-dimethoxybenzimidazol-1-yl)-N-(2,2,2-trifluoroethyl)pyridine-3-carboxamide] were, in that order, 12100 nM, 6240 nM and greater than 30000 nM.
The like results for `COc1cc2ncn(-c3ccc(C(N)=O)c(NC(CN)c4ccsc4)n3)c2cc1OC` (stereo not drawn) [Example 12, 2-[[2-amino-1-(3-thienyl)ethyl]amino]-6-(5,6-dimethoxybenzimidazol-1-yl)pyridine-3-carboxamide hydrochloride] were, in that order, 1.7 nM, 2.2 nM and 69.2 nM.
As to `CC(=O)c1ccc(-n2cnc3cc(Nc4cccn(C)c4=O)ccc32)nc1-n1nc(C#N)cc1C` [Example 37, 1-[3-acetyl-6-[5-[(2-keto-1-methyl-3-pyridyl)amino]benzimidazol-1-yl]-2-pyridyl]-5-methyl-pyrazole-3-carbonitrile], the values for the IC50 at SIK1, on SIK2 and on SIK3 were greater than 10000 nM, 502 nM and 208 nM, respectively.
